Laboratory results reported in ChEMBL document CHEMBL1201862, “PubChem BioAssay data set” (2004).
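1) Cells in 96-well plates. 2) Compound, 48 h, 5 concentrations. 3) Linear interpolation between surrounding doses. 4) Unreached endpoint = highest concentration. Abbreviation: GI50, concentration required for 50% inhibition of growth.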 Activity calls are given as the source filed them. Rule as the data show it: active = GI50 up to about 1.1 µM and inactive = higher.

Key:
Test in all cases: NCI tumour cell line growth inhibition, 48 h
786-0 = system: 786-0
A549 = system: A549
CAKI-1 = system: CAKI-1
CCRF-CEM = system: CCRF-CEM
HL-60 = system: HL-60
HOP-92 = system: HOP-92
HT-29 = system: HT-29
KM12 = system: KM12
Malme-3M = system: Malme-3M
NCI-H226 = system: NCI-H226
SF-539 = system: SF-539
SK-MEL-28 = system: SK-MEL-28
SK-MEL-5 = system: SK-MEL-5
SK-OV-3 = system: SK-OV-3
SN12C = system: SN12C
SR = system: SR
U-251 = system: U-251
UACC-257 = system: UACC-257
SNB-19 = system: SNB-19
PC-3 = system: PC-3

Measured: GI50

Clc1ccc(CCn2cncn2)cc1
inactive: 786-0 > 100 µM | A549 > 100 µM | CAKI-1 > 100 µM | CCRF-CEM > 100 µM | HL-60 > 100 µM | HOP-92 > 100 µM | HT-29 > 100 µM | KM12 > 100 µM | Malme-3M > 100 µM | NCI-H226 > 100 µM | SF-539 > 100 µM | SK-MEL-28 > 100 µM | SK-MEL-5 > 100 µM | SK-OV-3 > 100 µM | SN12C > 100 µM | SR > 100 µM | U-251 > 100 µM | UACC-257 > 100 µM

CC(=O)c1ccc(NC(=O)/C(=N\NC(N)=O)C(C#N)CC(C)(C)C=O)cc1 (stereo unspecified)
inactive: A549 > 100 µM | CAKI-1 > 100 µM | CCRF-CEM > 100 µM | HL-60 > 100 µM | HOP-92 > 100 µM | HT-29 > 100 µM | KM12 > 100 µM | NCI-H226 > 100 µM | SF-539 > 100 µM | SK-MEL-28 > 100 µM | SK-MEL-5 > 100 µM | SK-OV-3 > 100 µM | SN12C > 100 µM | SNB-19 > 100 µM | SR > 100 µM | U-251 > 100 µM | UACC-257 > 100 µM

COC(=O)C(CC(=O)c1cc2c(cc1I)OCO2)Cc1cc(OC)c(OC)c(OC)c1I (stereo unspecified)
inactive: 786-0 > 100 µM | A549 > 100 µM | CAKI-1 25 µM | CCRF-CEM > 100 µM | HL-60 16.7 µM | HOP-92 14.3 µM | HT-29 > 100 µM | KM12 71.6 µM | Malme-3M > 100 µM | NCI-H226 > 100 µM | SF-539 > 100 µM | SK-MEL-28 > 100 µM | SK-MEL-5 13.6 µM | SK-OV-3 > 100 µM | SN12C > 100 µM | SNB-19 > 100 µM | SR 8.69 µM | U-251 65.6 µM | UACC-257 16.4 µM

CCn1nc(C)c2c1C(=O)NCC(=O)N2
inactive: A549 > 100 µM | CAKI-1 > 100 µM | HOP-92 > 100 µM | HT-29 > 100 µM | KM12 > 100 µM | PC-3 > 100 µM | SF-539 > 100 µM | SK-MEL-28 > 100 µM | SK-MEL-5 > 100 µM | SK-OV-3 > 100 µM | SN12C > 100 µM | SNB-19 > 100 µM | U-251 > 100 µM | UACC-257 > 100 µM

CCOC(=O)/C(=C/c1ccco1)P(=O)(OCC)OCC
inactive: 786-0 > 100 µM | A549 > 100 µM | CAKI-1 > 100 µM | CCRF-CEM > 100 µM | HL-60 > 100 µM | HOP-92 > 100 µM | HT-29 > 100 µM | KM12 > 100 µM | Malme-3M > 100 µM | NCI-H226 > 100 µM | SF-539 > 100 µM | SK-MEL-28 > 100 µM | SK-MEL-5 > 100 µM | SK-OV-3 > 100 µM | SN12C > 100 µM | SR > 100 µM | U-251 > 100 µM | UACC-257 > 100 µM

COC(=O)C1=C(C(=O)OC)SC2(S1)C1=C(CCC1)SC(C(=O)OC)=C2C(=O)OC
inactive: A549 16.5 µM | CAKI-1 5.87 µM | CCRF-CEM 2.17 µM | HL-60 6.76 µM | HOP-92 10.2 µM | HT-29 4.58 µM | KM12 15.1 µM | Malme-3M 17.9 µM | PC-3 11.2 µM | SF-539 1.48 µM | SK-MEL-28 10.7 µM | SK-MEL-5 14.9 µM | SK-OV-3 16.9 µM | SN12C 10.7 µM | SNB-19 19.6 µM | U-251 15.6 µM | UACC-257 15.7 µM

Cc1cc(O)c(C(=O)CC2(O)C(=O)Nc3c(Cl)cc(Cl)cc32)c(=O)o1 (stereo unspecified)
inactive: 786-0 > 100 µM | A549 > 100 µM | CAKI-1 > 100 µM | CCRF-CEM 63 µM | HL-60 > 100 µM | HOP-92 > 100 µM | HT-29 > 100 µM | KM12 > 100 µM | Malme-3M > 100 µM | NCI-H226 88.1 µM | SF-539 61.1 µM | SK-MEL-28 > 100 µM | SK-MEL-5 > 100 µM | SK-OV-3 > 100 µM | SN12C > 100 µM | SNB-19 > 100 µM | SR > 100 µM | U-251 > 100 µM | UACC-257 > 100 µM

CSc1nncc2[nH]c(C)nc12
inactive: 786-0 > 100 µM | A549 > 100 µM | CAKI-1 > 100 µM | CCRF-CEM > 100 µM | HL-60 > 100 µM | HT-29 > 100 µM | KM12 > 100 µM | Malme-3M > 100 µM | NCI-H226 > 100 µM | PC-3 > 100 µM | SF-539 > 100 µM | SK-MEL-28 > 100 µM | SK-MEL-5 > 100 µM | SK-OV-3 > 100 µM | SN12C > 100 µM | U-251 > 100 µM | UACC-257 > 100 µM

CCOC(=O)C12CCC(=O)C=C1[C@@H](C)C(=O)CC2 (stereo partly specified)
inactive: HL-60 > 100 µM | HOP-92 93.3 µM | HT-29 > 100 µM | KM12 > 100 µM | Malme-3M > 100 µM | NCI-H226 > 100 µM | SK-MEL-28 > 100 µM | SK-MEL-5 > 100 µM | SK-OV-3 > 100 µM | SN12C > 100 µM | SR > 100 µM | U-251 > 100 µM | UACC-257 > 100 µM

O=C(Nc1cccc(O)c1)C(=O)C1C(=O)NC(=S)NC1=O
inactive: 786-0 > 100 µM | A549 > 100 µM | CAKI-1 > 100 µM | CCRF-CEM > 100 µM | HL-60 > 100 µM | HOP-92 > 100 µM | HT-29 > 100 µM | Malme-3M > 100 µM | NCI-H226 > 100 µM | SF-539 > 100 µM | SK-MEL-28 > 100 µM | SK-MEL-5 > 100 µM | SK-OV-3 > 100 µM | SN12C > 100 µM | SNB-19 > 100 µM | SR > 100 µM | U-251 > 100 µM | UACC-257 > 100 µM

CCOC(=O)c1sc2nc(SC)nc3c2c1NCN3C
inactive: 786-0 15.2 µM | A549 16.9 µM | CAKI-1 22.5 µM | CCRF-CEM > 100 µM | HOP-92 11.5 µM | HT-29 > 100 µM | KM12 > 100 µM | Malme-3M 24.8 µM | NCI-H226 31.7 µM | PC-3 > 100 µM | SK-MEL-28 > 100 µM | SK-MEL-5 51.5 µM | SK-OV-3 16.1 µM | SN12C 30.6 µM | SNB-19 20.5 µM | U-251 20.6 µM | UACC-257 > 100 µM

O=C(c1ccco1)c1ccccc1C(=O)c1ccco1
inactive: 786-0 > 100 µM | A549 > 100 µM | CAKI-1 > 100 µM | CCRF-CEM > 100 µM | HL-60 > 100 µM | HOP-92 > 100 µM | HT-29 > 100 µM | KM12 > 100 µM | Malme-3M > 100 µM | NCI-H226 > 100 µM | SF-539 > 100 µM | SK-MEL-28 > 100 µM | SK-MEL-5 > 100 µM | SN12C > 100 µM | SNB-19 > 100 µM | SR > 100 µM | U-251 > 100 µM | UACC-257 > 100 µM

CCCCCCCCOCC(O)COC(=O)CCCCCCC (stereo unspecified)
inactive: 786-0 > 100 µM | A549 > 100 µM | CAKI-1 > 100 µM | CCRF-CEM 12.1 µM | HL-60 32.4 µM | HOP-92 25.2 µM | HT-29 > 100 µM | Malme-3M > 100 µM | NCI-H226 > 100 µM | SK-MEL-28 > 100 µM | SK-MEL-5 > 100 µM | SK-OV-3 > 100 µM | SN12C > 100 µM | SNB-19 > 100 µM | SR 17.4 µM | U-251 > 100 µM | UACC-257 51.3 µM

Cc1nc(O)nc2c1C(NCCCN(C)C)c1cc(Cl)ccc1N2 (stereo unspecified)
inactive: 786-0 14.6 µM | A549 13.9 µM | CCRF-CEM 15.1 µM | HL-60 14 µM | HOP-92 10.9 µM | HT-29 10.4 µM | KM12 16 µM | Malme-3M 16.7 µM | NCI-H226 16.6 µM | SF-539 13.5 µM | SK-MEL-28 14 µM | SK-OV-3 16.9 µM | SN12C 14.8 µM | SNB-19 16.4 µM | SR 4.81 µM | U-251 15.9 µM | UACC-257 13.2 µM

O=C(O)CC(O)(C(=O)O)C(O)C(=O)O (stereo unspecified)
inactive: 786-0 > 1000 µM | A549 > 1000 µM | CAKI-1 > 1000 µM | CCRF-CEM > 1000 µM | HL-60 > 1000 µM | HT-29 > 1000 µM | KM12 > 1000 µM | Malme-3M > 1000 µM | NCI-H226 > 1000 µM | PC-3 > 1000 µM | SF-539 > 1000 µM | SK-MEL-28 > 1000 µM | SK-MEL-5 247 µM | SK-OV-3 > 1000 µM | SN12C > 1000 µM | SNB-19 > 1000 µM | U-251 > 1000 µM | UACC-257 > 1000 µM

CCOC(=O)C(Cl)(NC(=O)OCc1ccccc1)C(F)(F)F (stereo unspecified)
inactive: 786-0 > 100 µM | A549 > 100 µM | CAKI-1 > 100 µM | CCRF-CEM > 100 µM | HL-60 > 100 µM | HOP-92 > 100 µM | HT-29 > 100 µM | KM12 > 100 µM | Malme-3M > 100 µM | NCI-H226 > 100 µM | PC-3 > 100 µM | SF-539 > 100 µM | SK-MEL-28 > 100 µM | SK-MEL-5 > 100 µM | SK-OV-3 > 100 µM | SN12C > 100 µM | SNB-19 > 100 µM | U-251 > 100 µM | UACC-257 > 100 µM
